Test results as given in the supplement of paper PMC8671470.

Legend:
Conditions in all cases: 72 h
[1] = system: myeloid leukemia patient primary cells Pat.2; assay: area under dose-response curve (viability, 1 nM-10 uM) (fraction (0-1)); higher = more sensitive
Description: (§1)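 AUC (0–1, higher = more sensitive) of the 5-point dose–response (1 nM–10 µM, 72 h, CellTiter-Glo) in primary AML/CML patient mononuclear cells. 0.030103 is the floor for inactive compounds.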

[2] = system: myeloid leukemia patient primary cells Pat.12; assay: as above
Description: as §1

[3] = system: myeloid leukemia patient primary cells Pat.15; assay: as above
Description: as §1

[4] = system: myeloid leukemia patient primary cells Pat.4; assay: as above
Description: as §1

[5] = system: myeloid leukemia patient primary cells Pat.8; assay: as above
Description: as §1

[6] = system: myeloid leukemia patient primary cells Pat.11; assay: as above
Description: as §1

[7] = system: myeloid leukemia patient primary cells Pat.10; assay: as above
Description: as §1

[8] = system: myeloid leukemia patient primary cells Pat.1; assay: as above
Description: as §1

[9] = system: myeloid leukemia patient primary cells Pat.3; assay: as above
Description: as §1

[10] = system: myeloid leukemia patient primary cells Pat.14; assay: as above
Description: as §1

[11] = system: myeloid leukemia patient primary cells Pat.6; assay: as above
Description: as §1

[12] = system: myeloid leukemia patient primary cells Pat.9; assay: as above
Description: as §1

[13] = system: myeloid leukemia patient primary cells Pat.13; assay: as above
Description: as §1

[14] = system: myeloid leukemia patient primary cells Pat.7; assay: as above
Description: as §1

[15] = system: myeloid leukemia patient primary cells Pat.5; assay: as above
Description: as §1

HL-60 = assay: cell viability (% survival relative to DMSO control); higher = less cytotoxic
Description: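 8x8 drug-combination matrices (0-5000 nM; rosiglitazone and lestaurtinib 0-1000 nM) were run in HL-60 cells for 72 h with a CellTiter-Glo read-out. Survival is normalised to DMSO and 10 µM bortezomib and clipped at 100%. Bliss synergy was analysed in SynergyFinder.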

Cc1c2c(=O)n(-c3ccccc3Cl)[nH]c2cc(=O)n1Cc1ccccn1
Conditions	area under dose-response curve
[1]	< 0.0301
[2]	< 0.0301
[3]	< 0.0301
[4]	< 0.0301
[5]	< 0.0301
[6]	< 0.0301
[7]	0.0358
[8]	< 0.0301
[9]	< 0.0301
[10]	< 0.0301
[11]	< 0.0301
[12]	< 0.0301
[13]	< 0.0301
[14]	< 0.0301

c1cc(-c2cnn3cc(-c4ccc(OCCN5CCCCC5)cc4)cnc23)ccn1 [Dorsomorphin]
Conditions	area under dose-response curve
[1]	< 0.0301
[2]	< 0.0301
[3]	0.0705
[4]	0.182
[6]	0.106
[7]	0.342
[8]	0.142
[9]	0.0457
[10]	< 0.0301
[11]	< 0.0301
[12]	0.488
[13]	0.195
[14]	0.0504
[15]	0.508

CN(CCOc1ccc(Cc2sc(O)nc2O)cc1)c1ccccn1 [Rosiglitazone] + c1cc(-c2cnn3cc(-c4ccc(OCCN5CCCCC5)cc4)cnc23)ccn1 [Dorsomorphin]
cell viability [%], HL-60
Conditions	drug1 concentration 1 nM	drug1 concentration 5 nM	drug1 concentration 10 nM	drug1 concentration 50 nM	drug1 concentration 100 nM	drug1 concentration 500 nM	drug1 concentration 1000 nM
drug2 concentration 5 nM	> 100	95	74	> 100	> 100	94.8	> 100
drug2 concentration 10 nM	> 100	> 100	> 100	> 100	> 100	> 100	> 100
drug2 concentration 50 nM	94.3	> 100	> 100	> 100	81.2	> 100	> 100
drug2 concentration 100 nM	91.4	> 100	> 100	> 100	> 100	> 100	> 100
drug2 concentration 500 nM	90.8	> 100	84.6	> 100	> 100	60.9	> 100
drug2 concentration 1000 nM	88	> 100	40.1	> 100	86.7	87.6	96.3
drug2 concentration 5000 nM	12.7	33.1	33.7	24.4	65.7	82.5	90.1

O=C(/C=C/c1ccc(O)c(O)c1)OCCc1ccccc1 [Caffeic acid phenethyl ester]
Conditions	area under dose-response curve
[2]	0.201
[3]	0.145
[4]	0.328
[5]	0.297
[6]	0.14
[7]	0.539
[8]	0.155
[9]	0.467
[10]	0.242
[11]	0.168
[12]	0.563
[13]	0.082
[14]	0.323
[15]	0.411

O=C(O)CC[N+](=O)[O-] [3-nitropropionic acid] + CCn1c(=Cc2cccc[n+]2CC)sc(=C2Sc3ccccc3N2C)c1=O [MKT 077]
cell viability [%], HL-60
Conditions	drug1 concentration 5 nM	drug1 concentration 10 nM	drug1 concentration 50 nM	drug1 concentration 100 nM	drug1 concentration 500 nM	drug1 concentration 1000 nM	drug1 concentration 5000 nM
drug2 concentration 5 nM	95.5	92.9	74.5	> 100	> 100	> 100	88.8
drug2 concentration 10 nM	> 100	> 100	> 100	> 100	> 100	> 100	> 100
drug2 concentration 50 nM	> 100	92.7	> 100	98.3	97.7	> 100	> 100
drug2 concentration 100 nM	91.2	83.3	56.4	> 100	99.2	50.3	> 100
drug2 concentration 500 nM	99.2	84.2	> 100	> 100	> 100	84.7	86.6
drug2 concentration 1000 nM	> 100	> 100	> 100	> 100	84	> 100	67.3
drug2 concentration 5000 nM	> 100	79.2	> 100	84.7	> 100	> 100	99.6
